One series addresses CFTR (Homo sapiens, UniProt P13569). As to the kind of experiment: Membrane Potential Dye, Enteroid Assay A. Particulars: for EC50: read-out: Ent. A EC50. It counts as cell-based. In outline:
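Enteroid cells were loaded with methyl oxonol membrane potential dye (plus CaCCinh-A01 and Chicago Sky Blue) for 25 min at room temperature. Chloride transport was started by switching to chloride-free gluconate stimulation solution, with fluorescence read for 15 min. Activity was expressed as % of a triple-combination CFTR modulator control (3 μM, 3 μM, 300 nM acute).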

The mark [1] stands for this setting: from COC[C@@H](N)[C@H](Oc1cc(-c2c(C)cccc2C)nc(NS(=O)(=O)c2cccc(C(=O)O)c2)n1)c1ccc(C(C)(C)C)cc1, amide bond, 13-membered ring, HATU/DIEA, DMF, 162.0 mM, 0.5 h.

Molecules are shown by their SMILES. Where two headings read alike, the source gives them in different places. Some results are limits rather than exact numbers.

CFTR, sequence (P13569 with tags, fused parts or gaps DEL508-508): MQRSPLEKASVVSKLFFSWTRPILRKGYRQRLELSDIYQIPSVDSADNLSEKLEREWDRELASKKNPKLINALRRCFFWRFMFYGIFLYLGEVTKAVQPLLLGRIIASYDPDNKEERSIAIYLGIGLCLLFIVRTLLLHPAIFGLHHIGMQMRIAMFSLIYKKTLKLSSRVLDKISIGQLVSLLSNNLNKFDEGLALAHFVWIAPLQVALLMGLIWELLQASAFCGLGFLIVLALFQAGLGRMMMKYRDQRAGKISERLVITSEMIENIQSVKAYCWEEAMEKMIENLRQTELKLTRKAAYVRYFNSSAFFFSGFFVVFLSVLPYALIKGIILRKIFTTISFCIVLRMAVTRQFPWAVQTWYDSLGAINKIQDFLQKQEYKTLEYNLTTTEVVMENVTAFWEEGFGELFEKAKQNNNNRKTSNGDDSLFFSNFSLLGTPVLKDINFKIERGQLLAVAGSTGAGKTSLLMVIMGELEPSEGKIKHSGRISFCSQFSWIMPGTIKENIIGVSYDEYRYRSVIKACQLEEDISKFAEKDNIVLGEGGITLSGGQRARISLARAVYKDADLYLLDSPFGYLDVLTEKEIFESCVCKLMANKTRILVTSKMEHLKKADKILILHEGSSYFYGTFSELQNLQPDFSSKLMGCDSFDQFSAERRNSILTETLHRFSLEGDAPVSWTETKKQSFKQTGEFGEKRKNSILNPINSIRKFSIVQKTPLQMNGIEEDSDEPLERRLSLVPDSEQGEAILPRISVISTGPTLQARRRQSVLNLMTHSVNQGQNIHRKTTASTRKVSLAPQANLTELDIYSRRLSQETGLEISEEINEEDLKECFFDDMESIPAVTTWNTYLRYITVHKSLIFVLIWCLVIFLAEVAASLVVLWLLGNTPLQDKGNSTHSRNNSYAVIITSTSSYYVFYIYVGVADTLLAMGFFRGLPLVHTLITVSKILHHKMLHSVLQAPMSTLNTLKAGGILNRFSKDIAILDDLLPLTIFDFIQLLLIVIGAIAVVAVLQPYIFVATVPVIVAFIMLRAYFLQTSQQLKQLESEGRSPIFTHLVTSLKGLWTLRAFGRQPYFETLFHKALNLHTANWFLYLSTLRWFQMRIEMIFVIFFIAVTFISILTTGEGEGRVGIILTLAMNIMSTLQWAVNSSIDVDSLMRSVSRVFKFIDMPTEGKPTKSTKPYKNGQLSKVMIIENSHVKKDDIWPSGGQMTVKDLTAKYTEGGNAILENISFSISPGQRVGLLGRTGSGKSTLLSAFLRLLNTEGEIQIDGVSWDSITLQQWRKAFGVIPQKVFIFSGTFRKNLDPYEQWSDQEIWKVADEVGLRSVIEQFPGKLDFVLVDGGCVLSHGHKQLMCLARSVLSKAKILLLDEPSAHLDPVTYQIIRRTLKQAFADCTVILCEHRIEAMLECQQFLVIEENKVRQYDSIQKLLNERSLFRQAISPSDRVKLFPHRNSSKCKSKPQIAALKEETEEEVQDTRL

As to `COC[C@H]1NC(=O)c2cccc(c2)S(=O)(=O)Nc2nc(cc(-c3c(C)cccc3C)n2)O[C@@H]1c1ccc(C(C)(C)C)cc1` (single isomer, unassigned) [Compound 44], under setting [1], the ring closure, yield after HPLC came out at 8%. Besides, at CFTR (Table 9), the “Ent. A Max Activity” value was “+++ (+++ is >60%)” and the EC50 is less than 1000 nM.
Where the note is “from COC[C@@H](N)[C@H](Oc1cc(-c2c(C)cccc2C)nc(NS(=O)(=O)c2cccc(C(=O)O)c2)n1)c1ccc(C(C)(C)C)cc1, amide bond, 13-membered ring, HATU/DIEA, DMF, 161.6 mM, 25.0 °C, 0.5 h”, `COC[C@H]1NC(=O)c2cccc(c2)S(=O)(=O)Nc2nc(cc(-c3c(C)cccc3C)n2)OC1c1ccc(C(C)(C)C)cc1` (single isomer, unassigned) [Compound 45] came in with a ring closure, yield after HPLC of 8%. This compound registered a ring closure, yield after HPLC under setting [1] of 10%. Besides, on CFTR (Table 9), the “Ent. A Max Activity” value is “+++ (+++ is >60%)” and the half-maximal effective concentration (EC50) was less than 1000 nM.
`Cc1cccc(C)c1-c1cc2nc(n1)NS(=O)(=O)c1cccc(c1)C(=O)NCC(c1ccc(C(C)(C)C)cc1)O2` (stereo not drawn) [Compound 3, 10-(4-tert-butylphenyl)-6-(2,6-dimethylphenyl)-2,2-dioxo-9-oxa-2λ^6-thia-3,5,12,19-tetrazatricyclo[12.3.1.14,8]nonadeca-1(18),4(19),5,7,14,16-hexaen-13-one]: the ring closure, yield after HPLC (from Cc1cccc(C)c1-c1cc(Cl)nc(NS(=O)(=O)c2cccc(C(=O)NCC(O)c3ccc(C(C)(C)C)cc3)c2)n1, snar bond, 13-membered ring, NaH, NMP, 8.5 mM, 90.0 °C, 2.5 h) was 12%. Moreover, on CFTR (Table 8), the “Ent. A Max Activity” value is on record as “+++ (+++ is >60%)” and the EC50 was less than 1000 nM.
As to `Cc1cccc(C)c1-c1cc2nc(n1)NS(=O)(=O)c1cccc(c1)C(=O)NCC(c1ccc(C(C)(C)C)cn1)O2` (stereo not drawn) [Compound 6, 10-(5-tert-Butyl-2-pyridyl)-6-(2,6-dimethylphenyl)-2,2-dioxo-9-oxa-2λ^6-thia-3,5,12,19-tetrazatricyclo[12.3.1.14,8]nonadeca-1(18),4(19),5,7,14,16-hexaen-13-one], the ring closure, yield after HPLC (from Cc1cccc(C)c1-c1cc(OC(CN)c2ccc(C(C)(C)C)cn2)nc(NS(=O)(=O)c2cccc(C(=O)O)c2)n1, amide bond, 13-membered ring, HATU/DIEA, DMF, 40.9 mM, 25.0 °C, 0.25 h) amounted to 33%. Besides, the EC50 on CFTR (Table 8) is less than 1000 nM.
Take `Cc1cccc(C)c1-c1cc2nc(n1)NS(=O)(=O)c1cccc(c1)C(=O)NCC(C(=O)NCCC(C)(C)C)O2` (stereo not drawn) [Compound 30, N-(3,3-Dimethylbutyl)-6-(2,6-dimethylphenyl)-2,2,13-trioxo-9-oxa-2λ^6-thia-3,5,12,19-tetrazatricyclo[12.3.1.14,8]nonadeca-1(18),4(19),5,7,14,16-hexaene-10-carboxamide]: the ring closure, yield after HPLC (from Cc1cccc(C)c1-c1cc(OC(CN)C(=O)NCCC(C)(C)C)nc(NS(=O)(=O)c2cccc(C(=O)O)c2)n1, amide bond, 13-membered ring, HATU/DIEA, DMF, 30.2 mM, 25.0 °C, 0.25 h) is 28%. The concentration giving a half-maximal response (EC50) at CFTR (Table 8) lay within 3000 to 30000 nM.
As to `Cc1cccc(C)c1-c1cc2nc(n1)NS(=O)(=O)c1cccc(c1)C(=O)NCC(c1ccccc1Cl)O2` (stereo not drawn) [Compound 31, 10-(2-Chlorophenyl)-6-(2,6-dimethylphenyl)-2,2-dioxo-9-oxa-2λ^6-thia-3,5,12,19-tetrazatricyclo[12.3.1.14,8]nonadeca-1(18),4(19),5,7,14,16-hexaen-13-one], under “from Cc1cccc(C)c1-c1cc(OC(CN)c2ccccc2Cl)nc(NS(=O)(=O)c2cccc(C(=O)O)c2)n1, amide bond, 13-membered ring, HATU/DIEA, DMF, 42.4 mM, 25.0 °C, 1.0 h”, the ring closure, yield after HPLC was found to be 49%. In addition, at CFTR (Table 8), the “Ent. A Max Activity” value is “+++ (+++ is >60%)” and the concentration for a half-maximal effect (EC50) was less than 1000 nM.
As to `Cc1cccc(C)c1-c1cc2nc(n1)NS(=O)(=O)c1cccc(c1)C(=O)NCC(c1cccc(Cl)c1)O2` (stereo not drawn) [Compound 32, 10-(3-Chlorophenyl)-6-(2,6-dimethylphenyl)-2,2-dioxo-9-oxa-2λ^6-thia-3,5,12,19-tetrazatricyclo[12.3.1.14,8]nonadeca-1(18),4(19),5,7,14,16-hexaen-13-one], for the setting “from Cc1cccc(C)c1-c1cc(OC(CN)c2cccc(Cl)c2)nc(NS(=O)(=O)c2cccc(C(=O)O)c2)n1, amide bond, 13-membered ring, HATU/DIEA, DMF, 41.6 mM, 25.0 °C, 1.0 h”, the ring closure, yield after HPLC was 27%. Besides, on CFTR (Table 8), the “Ent. A Max Activity” value is recorded as “+++ (+++ is >60%)” and the concentration giving a half-maximal response (EC50) was less than 1000 nM.
Regarding `Cc1cccc(C)c1-c1cc2nc(n1)NS(=O)(=O)c1cccc(c1)C(=O)NCC(c1ccc(OCC3(C(F)(F)F)CC3)cc1)O2` (stereo not drawn) [Compound 33, 6-(2,6-Dimethylphenyl)-2,2-dioxo-10-[4-[[1-(trifluoromethyl)cyclopropyl]methoxy]phenyl]-9-oxa-2λ^6-thia-3,5,12,19-tetrazatricyclo[12.3.1.14,8]nonadeca-1(18),4(19),5,7,14,16-hexaen-13-one], the ring closure, yield after HPLC (from Cc1cccc(C)c1-c1cc(OC(CN)c2ccc(OCC3(C(F)(F)F)CC3)cc2)nc(NS(=O)(=O)c2cccc(C(=O)O)c2)n1, amide bond, 13-membered ring, HATU/DIEA, DMF, 48.7 mM, 25.0 °C, 72.0 h) was 10%. On CFTR (Table 8), the “Ent. A Max Activity” value is “+++ (+++ is >60%)” and the EC50 was less than 1000 nM.
Compound `Cc1cccc(C)c1-c1cc2nc(n1)NS(=O)(=O)c1cccc(c1)C(=O)NCC(C1CCOCC1)O2` (stereo not drawn) [Compound 34, 6-(2,6-Dimethylphenyl)-2,2-dioxo-10-tetrahydropyran-4-yl-9-oxa-2λ^6-thia-3,5,12,19-tetrazatricyclo[12.3.1.14,8]nonadeca-1(18),4(19),5,7,14,16-hexaen-13-one] yielded a ring closure, yield after HPLC (from Cc1cccc(C)c1-c1cc(OC(CN)C2CCOCC2)nc(NS(=O)(=O)c2cccc(C(=O)O)c2)n1, amide bond, 13-membered ring, HATU/DIEA, DMF, 66.2 mM, 25.0 °C, 0.25 h) of 25%. Besides, on CFTR (Table 8), the “Ent. A Max Activity” value is given as “+ (+ is <30%)”.
As to `Cc1cccc(C)c1-c1cc2nc(n1)NS(=O)(=O)c1cccc(c1)C(=O)N[C@H](C)[C@@H](c1ccc(C(F)(F)F)cc1)O2` [Compound 41, (10R,11R)-6-(2,6-Dimethylphenyl)-11-methyl-2,2-dioxo-10-[4-(trifluoromethyl)phenyl]-9-oxa-2λ^6-thia-3,5,12,19-tetrazatricyclo[12.3.1.14,8]nonadeca-1(18),4(19),5,7,14,16-hexaen-13-one], where the note is “from Cc1cccc(C)c1-c1cc(O[C@H](c2ccc(C(F)(F)F)cc2)[C@@H](C)N)nc(NS(=O)(=O)c2cccc(C(=O)O)c2)n1, amide bond, 13-membered ring, HATU/NaOtBu, DMF/THF, 96.3 mM, 25.0 °C, 0.33 h, 2 steps”, the ring closure, yield after HPLC was found to be 10%. In addition, at CFTR (Table 9), the “Ent. A Max Activity” value is recorded as “++ (++ is 30-60%)” and the EC50 is less than 1000 nM.
`Cc1cccc(C)c1-c1cc2nc(n1)NS(=O)(=O)c1cccc(c1)C(=O)N[C@H](C)[C@H](c1ccc(C(F)(F)F)cc1)O2` [Compound 42, (10S,11R)-6-(2,6-dimethylphenyl)-11-methyl-2,2-dioxo-10-[4-(trifluoromethyl)phenyl]-9-oxa-2λ^6-thia-3,5,12,19-tetrazatricyclo[12.3.1.14,8]nonadeca-1(18),4(19),5,7,14,16-hexaen-13-one] showed a ring closure, yield after HPLC (from Cc1cccc(C)c1-c1cc(O[C@@H](c2ccc(C(F)(F)F)cc2)[C@@H](C)N)nc(NS(=O)(=O)c2cccc(C(=O)O)c2)n1, amide bond, 13-membered ring, HATU/NaOtBu, DMF/THF, 96.3 mM, 25.0 °C, 0.33 h, 2 steps) of 4%. Also, on CFTR (Table 9), the “Ent. A Max Activity” value was “++ (++ is 30-60%)” and the EC50 is less than 1000 nM.
For the setting “from Cc1cccc(C)c1-c1cc(O[C@H](c2ccc(C(C)(C)C)cc2)[C@H](C)N)nc(NS(=O)(=O)c2cccc(C(=O)O)c2)n1, amide bond, 13-membered ring, HATU/NaOtBu, DMF/THF, 53.4 mM, 25.0 °C, 0.1 h, 2 steps”, `Cc1cccc(C)c1-c1cc2nc(n1)NS(=O)(=O)c1cccc(c1)C(=O)N[C@@H](C)[C@@H](c1ccc(C(C)(C)C)cc1)O2` [Compound 43, (10R,11S)-10-(4-tert-butylphenyl)-6-(2,6-dimethylphenyl)-11-methyl-2,2-dioxo-9-oxa-2λ^6-thia-3,5,12,19-tetrazatricyclo[12.3.1.14,8]nonadeca-1(18),4(19),5,7,14,16-hexaen-13-one] showed a ring closure, yield after HPLC of 13%. Further, on CFTR (Table 9), the “Ent. A Max Activity” value is given as “+++ (+++ is >60%)” and the EC50 is less than 1000 nM.
With `Cc1cccc(C)c1-c1cc2nc(n1)NS(=O)(=O)c1cccc(c1)C(=O)NCCC(c1ccc(C(C)(C)C)cc1)O2` (stereo not drawn) [Compound 55, 10-(4-tert-Butylphenyl)-6-(2,6-dimethylphenyl)-2,2-dioxo-9-oxa-2λ^6-thia-3,5,13,20-tetrazatricyclo[13.3.1.14,8]icosa-1(19),4(20),5,7,15,17-hexaen-14-one], where the note is “from Cc1cccc(C)c1-c1cc(OC(CCN)c2ccc(C(C)(C)C)cc2)nc(NS(=O)(=O)c2cccc(C(=O)O)c2)n1, amide bond, 14-membered ring, HATU/TEA, DMF, 204.0 mM, 50.0 °C, 0.25 h”, the ring closure, yield after HPLC was determined as 18%. On CFTR (Table 9), the “Ent. A Max Activity” value is “++ (++ is 30-60%)” and the EC50 fell in the range of 1000 to 3000 nM.
Under “from Cc1cccc(C)c1-c1cc(OC[C@H](N)CC2CCCCC2)nc(NS(=O)(=O)N2CCCC(C(=O)O)C2)n1, amide bond, 13-membered ring, HATU/DIEA, DMF, 19.2 mM, 3.0 h”, `Cc1cccc(C)c1-c1cc2nc(n1)NS(=O)(=O)N1CCCC(C1)C(=O)N[C@H](CC1CCCCC1)CO2` (stereo partly drawn) [Compound 73, (11R)-11-(Cyclohexylmethyl)-6-(2,6-dimethylphenyl)-2,2-dioxo-9-oxa-2λ^6-thia-1,3,5,12,19-pentazatricyclo[12.3.1.14,8]nonadeca-4(19),5,7-trien-13-one] gave a ring closure, yield after HPLC of 19%. The “Ent. A Max Activity” value on CFTR (Table 8) is “+ (+ is <30%)”.

A word on the EC50: it is the concentration at which the effect is half-maximal.

(Values after patent publication US20230382924A1, “MODULATORS OF CYSTIC FIBROSIS TRANSMEMBRANE CONDUCTANCE REGULATOR” (VERTEX PHARMACEUTICALS INCORPORATED, priority 2020, published 2023).)
